Results as given in patent US20250325675A1, “APTAMER, CONJUGATE, COMPOSITION, METHOD FOR PREPARING SAME, AND USE THEREOF” (priority 2022, published 2025).
{Cy5} = cyanine 5 fluorescent dye

Key:
[1] = tested on: U118-MG glioma cells; test: Flow cytometry: entry of conjugates into U118-MG glioma cells in vitro; type: cell-based, human; conditions: for relative fluorescence difference R: R=(MFIAP1−MFICAP10)/MFICAP10; for mean fluorescence intensity (MFI): 1 h 37°C, yeast tRNA 100 μg/mL, flow cytometry
Description: U118MG cells were seeded into a 96-well plate at 5×10^5 cells/well. Conjugate AP1 prepared above and yeast tRNA were respectively formulated into conjugates solution 1A, 1B, 1C, 1D, 1E, 1F, 1G, 1H, and 1I with DMEM medium, and these conjugate solutions 1A-1I comprised yeast tRNA at a final concentration of 100 μg/mL and respectively comprised conjugate AP1 at final concentrations of 5 nM, 10 nM, 20 nM, 40 nM, 60 nM, 80 nM, 100 nM, 150 nM, 200 nM, and […].
Control conjugate comparative AP10 prepared above and yeast tRNA were respectively formulated into conjugates solution 1A′, 1B′, 1C′, 1D′, 1E′, 1F′, 1G′ 1H′, and 1I′ with DMEM medium, and these conjugate solutions 1A′-1I′ comprised yeast tRNA at a final concentration of 100 μg/mL and respectively comprised control conjugate comparative AP10 at final concentrations of 5 nM, 10 nM, 20 nM, 40 nM, 60 nM, 80 nM, 100 nM, 150 nM, 200 nM, and […].
The aforementioned culture wells containing U118MG cells were respectively added with the conjugate solutions 1A-1I above in an amount of 200 μL/well and designated as test group 1A-test group 1I. The aforementioned culture wells containing U118MG cells were respectively added with the conjugate solution 1A′-1I′ above in an amount of 200 μL/well and designated as control group 1A′-control group 1I′. Another culture well containing U118MG cells was added with 200 μL DMEM medium containing yeast tRNA at a final concentration of 100 μg/mL and designated as blank control group 1J. The 96-well plate containing the above test groups and the blank control group were incubated at 37° C. for 1 h in the dark; after incubation, the supernatant of the reaction mixture of each test group and the blank control group was aspirated, and DPBS buffer (purchased from Thermo Fisher) was added to wash the plate 3 times (100 μL each time). After the washing solution was aspirated, each culture well was added with 100 μL DMEM medium to obtain a cell suspension. The supernatant was removed by centrifugation and then 500 μL DPBS buffer was added to re-suspend the cells. Flow cytometry analysis was performed with flow cytometer (BD Biosciences): 10,000 cells in each test group or the blank control group were analyzed, the fluorescence intensity distribution was determined and the mean fluorescence intensity (MFI, a.u.) was calculated. Furthermore, the mean fluorescence intensity corresponding to each final concentration of conjugates is listed in Table 4 below for comparison, and the relative fluorescence difference R is calculated according to the following equation: R=(MFIAP1−MFICAP10)/MFICAP10.
Therein, MFIAP1 represents mean fluorescence intensity of conjugate AP1 in U118-MG glioma cells, and MFICAP10 represents mean fluorescence intensity of comparative AP10 in U118-MG glioma cells.

[2] = tested on: U118MG glioma cells; test: High content imaging: entry of conjugates into U118MG glioma cells; type: cell-based, human; conditions: 100 nM, 30 min 37°C, normalized to control group 2Y
Description: (§1) In this experiment, the entry of conjugate AP1 provided by the present disclosure and comparative conjugate comparative AP10 into different cells was observed by a PerkinElmer High Content Imaging system (Operatta).
(§2) U118MG glioma cells, SVGp12 normal astrocytes, T98G human brain glioma cells, U251 human glioma cells, A549 human non-small cell lung cancer cells, MCF-7 human breast cancer cells, and 293T human kidney epithelial cells were all purchased from the Shanghai Cell Bank of Chinese Academy of Sciences. […] The supernatant was aspirated and DPBS buffer (purchased from Thermo Fisher) was added to wash the plate 2 times (100 μL each time).
(§3) Conjugate AP1 prepared above and yeast tRNA were respectively formulated into conjugate solution 2A with DMEM medium, and the conjugate solution 2A comprised yeast tRNA at a final concentration of 100 μg/mL and conjugate AP1 at a final concentration of 100 nM. […]
(§4) Normalization was performed according to the mean fluorescence intensity of control group 2Y, that is, subtracting the mean fluorescence intensity of control group 2Y from the fluorescence intensity of test group 2X before performing imaging.

[3] = tested on: SVGp12 normal astrocytes; test: High content imaging: entry of conjugates into SVGp12 normal astrocytes; type: cell-based, human; conditions: 100 nM, 30 min 37°C
Description: as §1, §2, §3, §4

[4] = tested on: MCF-7 human breast cancer cells; test: High content imaging: entry of conjugates into MCF-7 cells; type: cell-based; conditions: 100 nM, 30 min 37°C
Description: as §1, §2, §3, §4

[5] = tested on: U118MG glioma tumor spheres; test: High content imaging: entry into U118MG tumor spheres; type: cell-based, human; conditions: 100 nM, imaging without washing
Description: In this experiment, the entry of conjugate AP1 provided by the present disclosure and comparative conjugate comparative AP10 into U118MG glioma tumor spheres and A549 human non-small cell lung cancer tumor spheres was observed by a PerkinElmer High Content Imaging system (Operatta).
80 μL fresh, sterilized and unsolidified 2% agarose was added into the culture wells of a 96-well plate. […] Half of the supernatant was aspirated every 48 h and fresh DMEM medium was added along the wall of the culture wells. After 7 days of culture, the cells were observed under the microscope to confirm that complete cell spheres were obtained, indicating successful tumor sphere cultivation.
Each culture well was added with AP1 or comparative AP10 according to the method of experimental Example 2, and imaged in a high content imaging system, with the only difference of directly performing imaging after culture without washing and performing imaging according to the measured fluorescence intensity of Cy5.

CY5-CfUfGGAGUfUfCfAGACfGUfGUfUfGCfUfCfUfUfCfCfGAUfCfUfCf (CUGGAGUUCAGACGUGUUGCUCUUCCGAUCUC; 2'-fluoro at CU, RNA at AG, 5' {Cy5}, backbone not given here) [AP1]
relative fluorescence difference R ([1]; 5 nM): 9.37
relative fluorescence difference R ([1]; 10 nM): 6.47
relative fluorescence difference R ([1]; 20 nM): 5.18
relative fluorescence difference R ([1]; 40 nM): 2.25
relative fluorescence difference R ([1]; 60 nM): 2.53
relative fluorescence difference R ([1]; 80 nM): 2.71
relative fluorescence difference R ([1]; 100 nM): 1.88
relative fluorescence difference R ([1]; 150 nM): 2.17
relative fluorescence difference R ([1]; 200 nM): 3.23
relative fluorescence difference R ([1]; 500 nM): 2.91
mean fluorescence intensity compared with comparative AP10 ([1]; at different concentrations (5-500 nM)): significantly higher mean fluorescence intensity
mean fluorescence intensity (MFI) ([1]; conjugate 5 nM): 263.4 a.u.
mean fluorescence intensity (MFI) ([1]; conjugate 10 nM): 503.4 a.u.
mean fluorescence intensity (MFI) ([1]; conjugate 20 nM): 1089.4 a.u.
mean fluorescence intensity (MFI) ([1]; conjugate 40 nM): 1440.4 a.u.
mean fluorescence intensity (MFI) ([1]; conjugate 60 nM): 2355.4 a.u.
mean fluorescence intensity (MFI) ([1]; conjugate 80 nM): 2921.4 a.u.
mean fluorescence intensity (MFI) ([1]; conjugate 100 nM): 3360.4 a.u.
mean fluorescence intensity (MFI) ([1]; conjugate 150 nM): 3969.4 a.u.
mean fluorescence intensity (MFI) ([1]; conjugate 200 nM): 7895.4 a.u.
mean fluorescence intensity (MFI) ([1]; conjugate 500 nM): 15770.4 a.u.
Cy5 fluorescence signal in cells [2]: strong Cy5 fluorescence signal
Cy5 fluorescence signal in cells [3]: did not show any fluorescence signal
Cy5 fluorescence signal in cells [4]: strong Cy5 fluorescence signal
Cy5 fluorescence signal in tumor spheres [5]: strong Cy5 fluorescence signal
